Measured values published in paper PMC3581553, “New Approaches of PARP-1 Inhibitors in Human Lung Cancer Cells and Cancer Stem-Like Cells by Some Selected Anthraquinone-Derived Small Molecules” (PLoS ONE, 2013).
Like-named read-outs stand apart in the source and are kept apart here.

Legend:
[1] = test system: A549/ATCC; assay: NCI-60 drug screen (SRB), NSCLC line A549/ATCC; format: cell-based, human; conditions: for LC50 (concentration killing 50% of cells) / GI50: Homo sapiens
Protocol: (§1) As a primary screening, seven selected compounds were submitted to the National Cancer Institute (NCI) cell lines screen for evaluation of their anticancer activity. From the data analysis, it follows that approximately 95% of the actives from the 60 cell lines screen can be identified. The detailed methods used for the 60 cell lines panel have been described elsewhere [54]–[59]. Briefly, cellular protein levels were determined after 48 hours of drug exposure by SRB colorimetry. Through the use of a time zero cell control, the cell growth can be determined for each cell line thus allowing calculations of GI50, TGI, and LC50. Comparison to plates not exposed to drug permits determination of concentration and times of exposure conferring GI50, TGI, and LC50. […] By these criteria, seven compounds reported from our compounds bank were all active and passed on for evaluation in the full panel of 60 human tumor cell lines. The panel is organized into nine subpanels representing diverse histology: leukemia, melanoma, and cancers of the lung, colon, kidney, ovary, breast, prostate, and central nervous system.

[2] = test system: EKVX; assay: NCI-60 drug screen (SRB), NSCLC line EKVX; format: cell-based, human; conditions: for LC50 / GI50: Homo sapiens
Protocol: as §1

[3] = test system: HOP-92; assay: NCI-60 drug screen (SRB), NSCLC line HOP-92; format: cell-based, human; conditions: for GI50 / CC50: Homo sapiens; for CC50: read-out: LC50 (the source's name)
Protocol: as §1

[4] = test system: NCI-H226; assay: NCI-60 drug screen (SRB), NSCLC line NCI-H226; format: cell-based, human; conditions: for GI50 / CC50: Homo sapiens; for CC50: read-out: LC50 (the source's name)
Protocol: as §1

[5] = test system: NCI-H322M; assay: NCI-60 drug screen (SRB), NSCLC line NCI-H322M; format: cell-based, human; conditions: for LC50 / GI50: Homo sapiens
Protocol: as §1

[6] = test system: NCI-H460; assay: NCI-60 drug screen (SRB), NSCLC line NCI-H460; format: cell-based, human; conditions: for LC50 (concentration killing 50% of cells) / GI50: Homo sapiens
Protocol: as §1

[7] = test system: NCI-H522; assay: NCI-60 drug screen (SRB), NSCLC line NCI-H522; format: cell-based, human; conditions: for GI50 / CC50: Homo sapiens; for CC50: read-out: LC50 (the source's name)
Protocol: as §1

[8] = test system: A549 cells; assay: MTT cytotoxicity assay, A549 cells; format: cell-based; conditions: Homo sapiens, 48 h of drug exposure
Protocol: Non-small cell lung cancer cells A549 and Oct-4- and Nanog-overexpressed A549 clone (clone #3; A3), presented the properties of cancer stem-like cells, as well as epithelial-mesenchymal transdifferentiation, according to our previous study. They were grown in the same conditions as RPMI 1640 media supplemented with 10% fetal bovine serum (FBS), 100 units/mL penicillin, […] streptomycin, 1 mM sodium pyruvate, 2 mM l-glutamine and 1% non-essential amino acid (NEAA) in a humidified atmosphere with 5% CO2 at 37°C. Normal fibroblast cells HEL299 from American Type Culture Collection (ATCC) were grown in MEM media supplemented with 10% FBS, 100 units/mL penicillin, […] streptomycin, 1 mM sodium pyruvate, 2 mM l-glutamine and 1% NEAA, in a humidified atmosphere with 5% CO2 at 37°C.
The tetrazolium reagent (MTT; 3-(4,5-dimethylthiazol-2-yl)-2,5-diphenyl-tetrazolium bromide, USB) was designed to yield a colored formazan upon metabolic reduction by viable cells, [61]. Approximately 5×10^4 cells were plated onto each well of a 24-well plate and incubated in 5% CO2 at 37°C for 24 hours. To assess the in vitro cytotoxicity, each compound was dissolved in DMSO and prepared immediately before the experiments and then was diluted into the complete medium before being added to cell cultures. Test compounds were then added to the culture medium in various designated concentrations. After 48 hours, an amount of 100 µl of MTT was added to each well, and the samples were incubated at 37°C for 2 h. 100 µl DMSO was added to each well. The absorbency at 560 nm and reference absorbency at 670 nm were measured using an ELISA reader.

[9] = test system: A3 clone; assay: Sphere formation and cell viability assay in A3 clone; format: cell-based, human; conditions: treated A3 clone
[10] = test system: PARP-1 mRNA expression in A3 cells; assay: Quantitative RT-PCR of PARP-1 in treated A3 cells; format: cell-based, human
From the text: RNA was isolated from cells with the TRIzol (Invitrogen) reagent […], and this was followed by RNA clean up with the RNeasy Minikit (QIAGEN). cDNA was produced with the First Strand cDNA Synthesis Kit (Roche). Real-time quantitative PCR reactions were set up in triplicate with the Brilliant II SYBR Green QPCR Master Mix (Stratagene) and run on an Mx3000P QPCR System (Stratagene).

[11] = 48 hours drug exposure, SRB, read-out: GI50
[12] = NCI in vitro 60-cell lines Drug Screen, read-out: -Log GI50 (converted)

SMILES	TGI ([1]; 48 hours drug exposure, SRB) [µM]	LC50 (concentration killing 50% of cells) ([1]; 48 hours drug exposure, SRB) [µM]	GI50 [1, 11] [µM]	GI50 [1, 12] [µM]	TGI ([2]; 48 hours drug exposure, SRB) [µM]	LC50 ([2]; 48 hours drug exposure, SRB) [µM]	GI50 [2, 11] [µM]	GI50 [2, 12] [µM]	TGI ([3]; 48 hours drug exposure, SRB) [µM]	GI50 [3, 11] [µM]	CC50 ([3]; 48 hours drug exposure, SRB) [µM]	GI50 [3, 12] [µM]	TGI ([4]; 48 hours drug exposure, SRB) [µM]	GI50 [4, 11] [µM]	CC50 ([4]; 48 hours drug exposure, SRB) [µM]	GI50 [4, 12] [µM]	LC50 ([5]; 48 hours drug exposure, SRB) [µM]	GI50 [5, 11] [µM]	GI50 [5, 12] [µM]	TGI ([6]; 48 hours drug exposure, SRB) [µM]	other results
CN1CCN(Cc2nc3ccc4c(c3[nH]2)C(=O)c2ccccc2C4=O)CC1 [NSC749235]	24.3	67.2	7.58	7.59	28.8	> 100	6.69	6.76	91.8	7.97	> 100	7.94	31.1	8.32	> 100	8.32	> 100	8.7	8.71	15.2	TGI ([5]; 48 hours drug exposure, SRB): 43.3 µM; LC50 (concentration killing 50% of cells) ([6]; 48 hours drug exposure, SRB): 45.1 µM; GI50 [6, 11]: 3.79 µM; GI50 [6, 12]: 3.8 µM; TGI ([7]; 48 hours drug exposure, SRB): 29.0 µM; GI50 [7, 11]: 13.8 µM; CC50 ([7]; 48 hours drug exposure, SRB): 61 µM; GI50 [7, 12]: 13.8 µM; IC50 [8]: 10.6 µM; cell growth / cell viability [9]: inhibit the cell growth; sphere formation ([9]; serum free medium with bFGF and EGF (10 ng/ml)): effectively block the sphere formation; expression levels of PARP-1 (mRNA) [10]: inhibit the expression levels of PARP-1
O=C(CCN1CCCC1)Nc1ccc2c(c1)C(=O)c1cc(NC(=O)CCN3CCCC3)ccc1C2=O [NSC746366]	12.7	74.7	2.2	2.19	20.4	> 100	3.57	3.55	0.82	0.45	34.6	0.447	12.6	2.72	58.3	2.69	42	1.81	1.82	>100	TGI ([5]; 48 hours drug exposure, SRB): 10.9 µM; LC50 (concentration killing 50% of cells) ([6]; 48 hours drug exposure, SRB): > 100 µM; GI50 [6, 11]: 2.69 µM; GI50 [6, 12]: 2.69 µM; TGI ([7]; 48 hours drug exposure, SRB): 17.1 µM; GI50 [7, 11]: 3.41 µM; CC50 ([7]; 48 hours drug exposure, SRB): > 100 µM; GI50 [7, 12]: 3.39 µM; IC50 [8]: 7.76 µM
CCN(CC)CCC(=O)Nc1ccc2c(c1)C(=O)c1cc(NC(=O)CCN(CC)CC)ccc1C2=O [NSC746365]	3.95	15.5	1.44	1.45	11.0	34.6	3.05	3.02	0.06	0.01	3.48	0.0148	20.3	6.56	45.9	6.61	4.71	2.85	2.82	4.85	LC50 (concentration killing 50% of cells) ([6]; 48 hours drug exposure, SRB): > 100 µM; GI50 [6, 11]: 1.9 µM; GI50 [6, 12]: 1.91 µM; TGI ([7]; 48 hours drug exposure, SRB): 4.59 µM; GI50 [7, 11]: 1.4 µM; CC50 ([7]; 48 hours drug exposure, SRB): 19.3 µM; GI50 [7, 12]: 1.38 µM; IC50 [8]: 7.66 µM
